# Reference: US20240245804A1 (priority 2021, published 2024)
# “Also recorded” adds a separate entry of the source.
# B1: CdaA: c-di-AMP cyclase from Listeria monocytogenes, wild type, expressed from plasmid in HEK 293T cells (protein, UniProt Q45589 1-273, looked up)
# Cyclic di-AMP synthase CdaA: MAFEDIPFLQYLGNAVDILLVWYVIYKLIMVIRGTKAVQLLKGIVVIVLVRMASQYLGLSTLQWLMDQAITWGFLAIIIIFQPELRRALEQLGRGRFFSRSGTPVEEAQQKTIEAITKAINYMAKRRIGALLTIERDTGMGDYIETGIPLNAKVSSELLINIFIPNTPLHDGAVIMKNNEIAAAACYLPLSESPFISKELGTRHRAAVGISEVTDSLTIIVSEETGGVSVAKNGDLHRELTEEALKEMLEAEFKKNTRDTSSNRWYWRGKKNG
# Tests used:
# STING [1] = assay type: cell-based, mouse
# STING [2] = assay type: cell-based, mouse; remark: listed apart in the source
# STING [3] = assay type: cell-based, mouse; remark: listed apart in the source
# STING [4] = assay type: cell-based, mouse; remark: listed apart in the source
# [5] = system: THP1-Blue-ISG reporter cells; assay type: cell-based
Molecule,induction of nitrite (STING [1]),STING agonism / activation of the pathway (STING [2]),STING agonism evidenced by induction of a variety of inflammatory genes (STING [3]),induction of IFNß (STING [4]),SEAP activity (activation of interferon signaling) [5]
Nc1ncnc2c1ncn2[C@@H]1O[C@@H]2COP(=O)(O)O[C@H]3[C@@H](O)[C@H](n4cnc5c(N)ncnc54)O[C@@H]3COP(=O)(O)O[C@H]2[C@H]1O [c-di-AMP],more potent induction,agonists of STING; also recorded: stronger activation,agonists of STING; also recorded: stronger activation,more potent induction,
"Nc1nc2c(ncn2[C@@H]2O[C@@H]3COP(=O)(O)O[C@H]4[C@@H](O)[C@H](n5cnc6c(N)ncnc65)O[C@@H]4COP(=O)(O)O[C@@H]2[C@@H]3O)c(=O)[nH]1 [cGAMP, 2′3′-cGAMP]",,,agonists of STING,,
B1,,,,,displayed activity
